Test results: patent EP4692094A1 (Beijing Konruns Pharmaceutical Co., Ltd., priority 2023, dated 2024)

Key:
Assay type in all cases: in vitro ADME
[1] = Assay for plasma protein binding rate (equilibrium dialysis), mouse plasma; conditions: dialysis 6 h at 37 °C, read-out: Mouse (Fu%)
Protocol: (§1) 1.1 Preparation of compounds: The compounds prepared in the examples were each dissolved in dimethylsulfoxide to give solutions at a concentration of 10 mmol/L. • 1) The example compounds were each diluted from 10 mmol/L stock solution to 0.2 mmol/L, i.e., 1 µL of the compound was added to 49 µL of DMSO; • 2) 3 µL of 0.2 mmol/L test compounds were added to 597 µL of blood plasma, and the mixtures were vortexed at 1000 rpm for 2 min; • 3) 50 µL of the plasma containing the drug in 2) was taken, 50 µL of PBS was added, and 300 µL of methanol internal standard* was added to serve as a sample T0; • 4) 120 µL of the plasma containing the drug in 2) was taken and added to one side of an HTD device membrane, and 120 µL of PBS was added to the other side of the membrane; a breathable film was covered, and the plasma and the residual sample in 2) were balanced at 37 °C (100 rpm and 5% CO2) for 6 h; • 5) 50 µL of the dialyzed plasma side sample was taken, 50 µL of PBS was added, and 300 µL of methanol internal standard* was added to serve as a sample P; • 6) 50 µL of the dialyzed PBS side sample was taken, 50 µL of blank plasma was added, and 300 µL of methanol internal standard* was added to serve as a sample B; • 7) 50 µL of the plasma containing the drug in 2) was taken, 50 µL of PBS was added, and 300 µL of methanol internal standard* was added to serve as a sample T6; • 8) All samples were vortexed, mixed homogeneously, and then centrifuged at 3220 g for 40 min at 4 °C; • 9) 100 µL of the supernatant and 100 µL of purified water were mixed homogenously for liquid chromatography-mass spectrometry.
(§2) An internal standard method was used, and the plasma protein binding rate, recovery rate, and residual percentage were calculated by using Excel according to the ratio of the peak area of the sample to the peak area of the internal standard. Free rate(%) = (RatioB)/(RatioP) × 100% [formula] Binding rate(%) = 100%−Free rate% [formula] Recovery rate(%) = (RatioB + RatioP)/(RatioT0) × 100% [formula] Remaining percentage(%) = (RatioT6)/(RatioT0) × 100% [formula]
(§3) RatioB: a ratio of the peak area of the test substance on the PBS side to the peak area of the internal standard; RatioP: a ratio of the peak area of the test substance on the plasma side to the peak area of the internal standard; RatioT6: a ratio of the peak area of the sample after incubation with the test substance for 6 h to the peak area of the internal standard; RatioT0: a ratio of the peak area of the sample after incubation with the test substance for 0 h to the peak area of the internal standard. Table 8. Plasma protein binding rate (Fu%) data for various species of example compounds

[2] = Assay for plasma protein binding rate (equilibrium dialysis), rat plasma; conditions: dialysis 6 h at 37 °C, read-out: Rat (Fu%)
Protocol: as §1, §2, §3

CYP2C19 = target: T1, CYP2C19 (Homo sapiens, UniProt P33261); assay: Inhibitory effect on P450 enzymes in vitro (human liver microsomes), CYP2C19; conditions: probe mephenytoin, final concentration 10 µM, substrate mephenytoin, read-out: % inhibition rate CYP2C19 (mephenytoin)
T1 construct: from tissue; host or cells: human liver microsomes
Protocol: 1.1 Preparation of compounds: The compounds prepared in the examples were each dissolved in dimethylsulfoxide to give solutions at a concentration of 2 mmol/L.
1.2 Test methods: • 1) Incubation system: human liver microsomes, a MgCl2 solution, a phosphate buffer solution, and a substrate solution were each added a 96-well deep-well plate and mixed homogenously. In the final incubation system, the concentration of the human liver microsomes was 0.2 mg/mL, and the final concentrations of the MgCl2 solution and the phosphate buffer solution were 5 mM and 100 mM, respectively. • 2) 1 µL of the substrate solution was added to the incubation system, and the final concentrations of CYP1A2 phenacetin, 2C8 paclitaxel […], 2C19 mephenytoin, 2D6 midazolam, and 3A midazolam substrates were 40 µM (phenacetin), 5 µM (paclitaxel), 50 µM (mephenytoin), 10 µM (mephenytoin), 5 µM (midazolam), and 50 µM […], respectively. • 3) 1 µL of the example compound or vehicle (DMSO) was added to the incubation system, and the incubation system was pre-warmed for 5 min in a 37 °C water bath before starting the reaction with 20 µL of 10 mM NADPH solution.
1.3 Sample treatment: Within the designated time (20 min for phenacetin, 10 min for paclitaxel, 20 min for mephenytoin, 20 min for dextromethorphan, 5 min for midazolam, and 10 min for testosterone), 400 µL of methanol containing the internal standard was added to terminate the reaction, and the mixture was vortexed and mixed homogeneously. Then, the deep-well plate was centrifuged at 3220 g and 4 °C for 40 min. 100 µL of the supernatant was transferred into a new plate, and 150 µL of purified water was added. The mixture was mixed homogenously for LC-MS/MS analysis. Table 11. Inhibitory effects of some compounds in the examples on CYP enzymes

T1 sequence (P33261 whole entry): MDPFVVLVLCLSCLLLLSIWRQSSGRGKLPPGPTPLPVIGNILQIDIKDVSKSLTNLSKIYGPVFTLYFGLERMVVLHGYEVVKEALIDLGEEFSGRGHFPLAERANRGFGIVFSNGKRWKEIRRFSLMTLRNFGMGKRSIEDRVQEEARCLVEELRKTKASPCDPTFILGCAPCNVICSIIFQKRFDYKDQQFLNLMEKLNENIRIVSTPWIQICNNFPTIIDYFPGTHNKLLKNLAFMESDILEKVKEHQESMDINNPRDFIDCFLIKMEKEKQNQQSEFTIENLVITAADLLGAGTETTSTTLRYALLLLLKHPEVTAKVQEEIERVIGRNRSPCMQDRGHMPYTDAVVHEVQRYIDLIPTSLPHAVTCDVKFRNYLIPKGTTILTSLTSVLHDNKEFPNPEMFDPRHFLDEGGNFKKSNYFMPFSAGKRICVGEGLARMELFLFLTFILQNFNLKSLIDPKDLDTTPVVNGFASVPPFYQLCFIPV

COc1cc2c(cc1S(=O)(=O)Nc1noc3cc(Cn4cccn4)nc(OC)c13)CCCC2 [Example 2, N-(6-((1H-Pyrazol-1-yl)methyl)-4-methoxyisoxazolo[4,5-c]pyridin-3-yl)-3-methoxy-5,6,7,8-tetrahydronaphthalene-2-sulfonamide]
fraction unbound at 6 h, 1 µM [1]: 0.0065 | fraction unbound at 6 h, 1 µM [2]: 0.0167 | inhibition at 20 min, 10 µM (CYP2C19): 42.8%

COc1ccc2c(c1S(=O)(=O)Nc1noc3cc(Cn4cccn4)nc(OC)c13)OCC2 [Example 9, N-(6-((1H-Pyrazol-1-yl)methyl)-4-methoxyisoxazolo[4,5-c]pyridin-3-yl)-6-methoxy-2,3-dihydrobenzofuran-7-sulfonamide]
fraction unbound at 6 h, 1 µM [1]: 0.0478 | fraction unbound at 6 h, 1 µM [2]: 0.0257

COc1ccc2ccoc2c1S(=O)(=O)Nc1noc2cc(Cn3cccn3)nc(OC)c12 [Example 10, N-(6-((1H-Pyrazol-1-yl)methyl)-4-methoxyisoxazolo[4,5-c]pyridin-3-yl)-6-methoxybenzofuran-7-sulfonamide]
fraction unbound at 6 h, 1 µM [1]: 0.0512 | fraction unbound at 6 h, 1 µM [2]: 0.0132 | inhibition at 20 min, 10 µM (CYP2C19): 9.54%

COc1cc2c(cc1S(=O)(=O)Nc1noc3cc(Cn4cccn4)nc(OC)c13)OCC2 [Example 59, N-(6-((1H-Pyrazol-1-yl)methyl)-4-methoxyisoxazolo[4,5-c]pyridin-3-yl)-5-methoxy-2,3-dihydrobenzofuran-6-sulfonamide]
fraction unbound at 6 h, 1 µM [1]: 0.05 | fraction unbound at 6 h, 1 µM [2]: 0.0414 | inhibition at 20 min, 10 µM (CYP2C19): 7.62%

COc1cc2c(cc1S(=O)(=O)Nc1noc3cc(Cn4cccn4)nc(OC)c13)CCCO2 [Example 76, N-(6-((1H-Pyrazol-1-yl)methyl)-4-methoxyisoxazolo[4,5-c]pyridin-3-yl)-7-methoxy-3,4-dihydro-1H-benzopyran-6-sulfonamide]
fraction unbound at 6 h, 1 µM [1]: 0.0072 | fraction unbound at 6 h, 1 µM [2]: 0.0144
